# Laboratory results from US8685974B2 (Bayer CropScience AG, priority 2009, dated 2014).
# Where two headings read alike, the source gives them in different places. Marks after values point to notes of the source that are not given here.
# What was measured:
# [1] = test system: Alternaria solani; test: Alternaria test (tomato) / protective; type: in vivo; conditions: 500 ppm active compound, protective spray, evaluated 7 days after inoculation
# Experimental: Alternaria Test (Tomato)/Protective
# Solvent: 49 parts by weight of N,N-dimethylformamide
# Emulsifier: 1 part by weight of alkylaryl polyglycol ether
# To produce a suitable preparation of active compound, 1 part by weight of active compound is mixed with the stated amounts of solvent and emulsifier, and the concentrate is diluted with water to the desired concentration.
# To test for protective activity, young tomato plants are sprayed with the preparation of active compound at the stated application rate. […] The plants then remain at 96% rel. atmospheric humidity and a temperature of 20° C.
# Evaluation is carried out 7 days after the inoculation. 0% means an efficacy which corresponds to that of the control, whereas an efficacy of 100% means that no infection is observed.
# [2] = test system: Fusarium graminearum; type: cell-based; conditions: 50 μM; for % Inhibition of DON/AcDON at 50 μM: 7 days at 28° C.
SMILES,log p (pH 2.3),efficacy [1] [%],log p (pH 2.7),logP value of the minor isomer (pH 2.7),% Inhibition of fungal growth at 50 μM [2] [%],% Inhibition of DON/AcDON at 50 μM [2] [%],log p (pH 7.8),logP value of the minor isomer (pH 7.8),"logP value of the minor isomer (in parenthesis in column Isomer ratio [d]) (minor isomer, main value of the example measured by method [a], pH 2.3)"
CC(C)Cn1cc(-c2ccnc(N(C(=O)C3CC3)C(=O)C3CC3)c2)c(-c2ccc(Cl)s2)n1 [Example 82],4.75^[a],78,,,,,,,
Fc1ccc(-c2nn(CC(F)(F)F)cc2-c2ccncc2)s1 [Example 378],,100,1.64^[b],(1.46),54,99,,,
CCCc1c(-c2ccncc2)c(-c2sccc2C)nn1C [Example 165],,70,1.31^[b],1.46^[b]),,,2.59^[c];,(2.79^[c];,
FC(F)(F)Cn1cc(-c2ccncc2)c(-c2cc3ccsc3s2)n1 [Example 330],,94,1.91^[b],,31,94,,,
CCC(C)n1cc(-c2ccnc(NC(=O)OC(C)C)c2)c(-c2ccc(Cl)s2)n1 (centres unmarked) [Example 239],,80,4.33^[b],,,,,,
CCC(CC)n1cc(-c2ccncc2)c(-c2ccc(F)s2)n1 [Example 380],,89,2.04^[b],(1.95),82,99,,,
Fc1ccc(-c2nn(CCCl)cc2-c2ccncc2)s1 [Example 381],,94,1.45^[b],(1.34),91,99,,,
C=CC(C)n1cc(-c2ccncc2)c(-c2cc3ccsc3s2)n1 (centres unmarked) [Example 368],,78,1.94^[b],,100,99,,,
CC(C)n1cc(-c2ccncc2)c(-c2cc3ccsc3s2)n1 [Example 366],,78,1.79^[b],,93,98,,,
CC1(Cn2cc(-c3ccncc3)c(-c3ccc(F)s3)n2)CC1(Cl)Cl (centres unmarked) [Example 342],,89,2.39^[b],,23,97,,,
CC(C)Cn1nc(-c2ccc(Cl)s2)c(-c2ccncc2)c1Br [Example 395],,78,3.58^[b],,0,99,,,
CC(C)(C)Cn1cc(-c2ccncc2)c(-c2ccc(Br)s2)n1 [Example 347],,70,2.46^[b],,79,99,,,
CC(C)Cn1cc(-c2ccncc2)c(-c2ccc(F)s2)n1 [Example 379],,94,1.82^[b],(1.72),90,99,,,
CC(C)n1cc(-c2ccncc2)c(-c2cccs2)n1 [Example 300],,95,1.27^[b],,100,99,,,
CC(C)Cn1cc(-c2ccncc2)c(-c2cc3ccsc3s2)n1 [Example 369],,94,2.04^[b],,100,99,,,
O=C1OCCC1n1cc(-c2ccncc2)c(-c2ccc(Br)s2)n1 (centres unmarked) [Example 385],,94,1.52^[b],,17,82,,,
CCC(CC)n1cc(-c2ccncc2)c(-c2cc3ccsc3s2)n1 [Example 333],,94,2.3^[b],,86,98,,,
CC(C)Cn1cc(-c2ccnc(N)c2)c(-c2ccc(Cl)s2)n1 [Example 76],2.04^[a],89,,,,,,,(1.93)
C=CC(C)n1cc(-c2ccncc2)c(-c2ccc(F)s2)n1 (centres unmarked) [Example 376],,100,1.73^[b],,84,99,,,
CC(C)(C)Cn1cc(-c2ccncc2)c(-c2cc3ccsc3s2)n1 [Example 334],,78,2.35^[b],,,,,,
c1cc(-c2cn(C3CCCC3)nc2-c2cc3ccsc3s2)ccn1 [Example 332],,94,2.25^[b],,,,,,

SMILES,log p (pH 2.3),efficacy [1] [%],log p (pH 2.7),logP value of the minor isomer (pH 2.7),% Inhibition of fungal growth at 50 μM [2] [%],% Inhibition of DON/AcDON at 50 μM [2] [%],log p (pH 7.8),logP value of the minor isomer (pH 7.8),"logP value of the minor isomer (in parenthesis in column Isomer ratio [d]) (minor isomer, main value of the example measured by method [a], pH 2.3)"
FC(F)Cn1cc(-c2ccncc2)c(-c2cc3ccsc3s2)n1 [Example 371],,78,1.63^[b],,82,99,,,
CCC(C)n1nc(-c2ccc(Cl)s2)c(-c2ccncc2)c1Br (centres unmarked) [Example 394],,94,3.69^[b],,92,100,,,
FCCn1cc(-c2ccncc2)c(-c2cc3ccsc3s2)n1 [Example 367],,78,1.45^[b],,78,99,,,
CCOCCn1cc(-c2ccncc2)c(-c2ccc(F)s2)n1 [Example 374],,94,1.43^[b],,58,99,,,
FCCn1cc(-c2ccncc2)c(-c2ccc(F)s2)n1 [Example 375],,100,1.16^[b],,78,99,,,
C=CC(C)n1cc(-c2ccncc2)c(-c2ccc(Br)s2)n1 (centres unmarked) [Example 389],,94,2.03^[b],(1.88),96,99,,,
FC(F)(F)Cn1cc(-c2ccncc2)c(-c2ccc(Br)s2)n1 [Example 391],,100,1.98^[b],,97,99,,,
Clc1ccc(Cn2cc(-c3ccncc3)c(-c3ccc(Cl)s3)n2)s1 [Example 323],,78,2.64^[b],,6,94,,,
CCn1cc(-c2ccncc2)c(-c2cc3ccsc3s2)n1 [Example 329],,94,1.57^[b],,85,98,,,
O=C1OCCC1n1cc(-c2ccncc2)c(-c2ccc(Cl)s2)n1 (centres unmarked) [Example 365],,78,1.48^[b],,100,90,,,
CCC(C)n1cc(-c2ccncc2)c(-c2cc3ccsc3s2)n1 (centres unmarked) [Example 328],,94,2.07^[b],,100,98,,,
CCn1cc(-c2ccncc2)c(-c2ccc(Br)s2)n1 [Example 390],,100,1.6^[b],(1.49),100,99,,,
Fc1ccc(-c2nn(CC(F)F)cc2-c2ccncc2)s1 [Example 373],,100,1.34^[b],,97,99,,,
CC(C)n1cc(-c2ccnc(NC(=O)c3ccccc3)c2)c(-c2ccc(Cl)s2)n1 [Example 260],,80,4.03^[b],,,,,,
Cn1cc(-c2ccnc(N)c2)c(-c2ccc(Cl)s2)n1 [Example 305],,70,1.34^[b],,,,,,
CCC(C)n1nc(-c2ccc(Cl)s2)c(-c2ccncc2)c1Cl (centres unmarked) [Example 201],,78,3.44^[b],,39,94,,,
CCOCCn1cc(-c2ccncc2)c(-c2cc3ccsc3s2)n1 [Example 337],,94,1.7^[b],,100,99,,,
Fc1cccc(Cn2cc(-c3ccncc3)c(-c3ccc(Br)s3)n2)c1F [Example 353],,78,2.44^[b],,,,,,
CC(C)(C)Cn1cc(-c2ccncc2)c(-c2ccc(F)s2)n1 [Example 345],,94,2.11^[b],,63,97,,,
Fc1ccc(-c2nn(C3CCCC3)cc2-c2ccncc2)s1 [Example 344],,94,2.02^[b],,91,98,,,
CCn1cc(-c2ccncc2)c(-c2ccc(F)s2)n1 [Example 377],,100,1.28^[b],(1.22),89,99,,,
